The source of these data is US20240246964A1 (Arbutus Biopharma Corporation, priority 2021, published 2024).

The term EC50 denotes the concentration at which the effect is half-maximal. Lower therefore signals an effect from little substance.

In this assay the target is human PD-L1 (Homo sapiens (Human), UniProt Q9NZQ7). Put plainly: T cell activation luciferase reporter cell culture system (T Cell Activation Assay). The class given is cell-based. The following applies: luciferase reporter assay; PD-L1 aAPC/CHO-K1 cells with PD-1 effector Jurkat T cells. For orientation: In a reporter assay the amount or activity of a reporter protein is the signal.
Chain of human PD-L1 (Q9NZQ7 19-290): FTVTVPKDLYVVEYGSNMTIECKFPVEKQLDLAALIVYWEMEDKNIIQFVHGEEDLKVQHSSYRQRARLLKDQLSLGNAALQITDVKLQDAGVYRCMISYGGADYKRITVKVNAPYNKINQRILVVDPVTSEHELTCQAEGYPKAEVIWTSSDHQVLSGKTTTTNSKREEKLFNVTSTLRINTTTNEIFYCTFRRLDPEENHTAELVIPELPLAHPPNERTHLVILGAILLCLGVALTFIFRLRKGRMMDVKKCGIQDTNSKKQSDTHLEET
Compound `COc1cc(-c2ccnc(-c3cccc(-c4ccc(CNC5CCOCC5)c(OC)n4)c3Cl)c2Cl)ccc1CNC1CCOCC1` [Example 623, N-(4-(3-Chloro-2-(2-chloro-3-(6-methoxy-5-(((tetrahydro-2H-pyran-4-yl)amino)methyl)pyridin-2-yl)phenyl)pyridin-4-yl)-2-methoxybenzyl)tetrahydro-2H-pyran-4-amine] displayed an EC50 of 222 nM.

Consider `COc1cc(-c2ccnc(-c3cccc(-c4ccc(CNC[C@@H]5CCC(=O)N5)c(OC)n4)c3Cl)c2Cl)ccc1CNC[C@@H]1CCC(=O)N1` [Example 624, (S)-5-(((4-(3-Chloro-2-(2-chloro-3-(6-methoxy-5-(((((S)-5-oxopyrrolidin-2-yl)methyl)-amino)methyl)pyridin-2-yl)phenyl)pyridin-4-yl)-2-methoxybenzyl)-amino)methyl)pyrrolidin-2-one], for which the EC50 came out at 16.7 nM.

As for `COCCC(=O)N1CCC(NCc2ccc(-c3cccc(-c4ccnc(-c5ccc(CN6CC7(CNC(=O)C7)C6)c(OC)c5)c4Cl)c3Cl)nc2OC)CC1` [Example 625, 2-(4-(3-Chloro-4-(2-chloro-3-(6-methoxy-5-(((1-(3-methoxypropanoyl)piperidin-4-yl)amino)methyl)pyridin-2-yl)phenyl)pyridin-2-yl)-2-methoxybenzyl)-2,6-diazaspiro[3.4]octan-7-one], the response was half-maximal at 20.8 nM (EC50).

The compound `COc1cc(-c2ncnc(-c3cccc(-c4ccc(CNC5CCOCC5)c(OC)n4)c3Cl)c2Cl)ccc1CNC1CCOCC1` [Example 626, N-((6-(2-Chloro-3-(5-chloro-6-(3-methoxy-4-(((tetrahydro-2H-pyran-4-yl)amino)methyl)phenyl)pyrimidin-4-yl)phenyl)-2-methoxypyridin-3-yl)methyl)tetrahydro-2H-pyran-4-amine] gave an EC50 of 79 nM.

In turn, `COCCC(=O)N1CCC(NCc2ccc(-c3cccc(-c4ccnc(-c5ccc(CN6CC7(C6)CN(C(C)=O)C7)c(OC)c5)c4Cl)c3Cl)nc2OC)CC1` [Example 631, 1-(4-(((6-(3-(2-(4-((6-Acetyl-2,6-diazaspiro[3.3]heptan-2-yl)methyl)-3-methoxyphenyl)-3-chloropyridin-4-yl)-2-chlorophenyl)-2-methoxypyridin-3-yl)methyl)amino)piperidin-1-yl)-3-methoxypropan-1-one] had a 50% effective concentration (EC50) of 37.7 nM.

`COCCC(=O)N1CCC(NCc2ccc(-c3cccc(-c4ccnc(-c5ccc(CNC[C@H](C)O)c(OC)c5)c4Cl)c3Cl)nc2OC)CC1` [Example 632, (S)-1-(4-(((6-(2-Chloro-3-(3-chloro-2-(4-(((2-hydroxypropyl)amino)methyl)-3-methoxyphenyl)pyridin-4-yl)phenyl)-2-methoxypyridin-3-yl)methyl)amino)piperidin-1-yl)-3-methoxypropan-1-one] showed an EC50 of 41.2 nM.

`COc1nc(-c2ccnc(-c3cccc4c3CC[C@@H]4Nc3nc(OC)c(CNC4CCN(C(C)=O)CC4)cc3C(F)(F)F)c2Cl)ccc1CNC[C@@H]1CCC(=O)N1` [Example 633, (S)-5-((((2′-((S)-1-((5-(((1-Acetylpiperidin-4-yl)amino)methyl)-6-methoxy-3-(trifluoromethyl)pyridin-2-yl)amino)-2,3-dihydro-1H-inden-4-yl)-3′-chloro-6-methoxy-[2,4′-bipyridin]-5-yl)methyl)amino)methyl)pyrrolidin-2-one] returned an EC50 of 121 nM.

With `COc1nc(-c2ccnc(-c3cccc4c3CC[C@@H]4Nc3nc(OC)c(CNC4CCOCC4)cc3C(F)(F)F)c2Cl)ccc1CNC[C@@H]1CCC(=O)N1` [Example 634, (S)-5-((((3′-Chloro-6-methoxy-2′-((S)-1-((6-methoxy-5-(((tetrahydro-2H-pyran-4-yl)amino)methyl)-3-(trifluoromethyl)pyridin-2-yl)amino)-2,3-dihydro-1H-inden-4-yl)-[2,4′-bipyridin]-5-yl)methyl)amino)methyl)pyrrolidin-2-one], a half-maximal effect (EC50) was put at 110 nM.

`COc1cc(-c2nccc(-c3cccc(-c4ccc(CN5CC6(C5)CN(C(C)=O)C6)c(OC)n4)c3C#N)c2Cl)ccc1CN1CC2(C1)CN(C(C)=O)C2` [Example 636, 2-(2-(4-((6-Acetyl-2,6-diazaspiro[3.3]heptan-2-yl)methyl)-3-methoxyphenyl)-3-chloropyridin-4-yl)-6-(5-((6-acetyl-2,6-diazaspiro[3.3]heptan-2-yl)methyl)-6-methoxypyridin-2-yl)benzonitrile] returned a half-maximal effective concentration (EC50) of 1270 nM.

`COc1cc(-c2nccc(-c3cccc(NC(=O)c4ccc(CNC[C@@H]5CCC(=O)N5)cn4)c3C)c2Cl)ccc1CNC[C@@H]1CCC(=O)N1` [Example 647, N-(3-(3-Chloro-2-(3-methoxy-4-(((((S)-5-oxopyrrolidin-2-yl)methyl)amino)methyl)phenyl)pyridin-4-yl)-2-methylphenyl)-5-(((((S)-5-oxopyrrolidin-2-yl)methyl)amino)methyl)picolinamide] returned a 50% effective concentration (EC50) of 65.3 nM.

`COc1cc(-c2nccc(-c3cccc(NC(=O)c4ccc(CN5CC6(C5)CN(C(C)=O)C6)cn4)c3C)c2Cl)ccc1CN1CC2(C1)CN(C(C)=O)C2` [Example 649, 5-((6-Acetyl-2,6-diazaspiro[3.3]heptan-2-yl)methyl)-N-(3-(2-(4-((6-acetyl-2,6-diazaspiro[3.3]heptan-2-yl)methyl)-3-methoxyphenyl)-3-chloropyridin-4-yl)-2-methylphenyl)picolinamide] came in with an EC50 of at least 10000 nM.

As for `COc1cc(-c2nccc(-c3cccc(-c4ccc(CN5CC6(CNC(=O)C6)C5)c(OC)n4)c3C#N)c2Cl)ccc1CN1CC2(CNC(=O)C2)C1` [Example 653, 2-(3-Chloro-2-(3-methoxy-4-((7-oxo-2,6-diazaspiro[3.4]octan-2-yl)methyl)phenyl)pyridin-4-yl)-6-(6-methoxy-5-((7-oxo-2,6-diazaspiro[3.4]octan-2-yl)methyl)pyridin-2-yl)benzonitrile], the EC50 amounted to 208 nM.

Consider `COc1nc(-c2cccc(-c3ccnc(-c4cc(OC)c5nc(CNCCO)nn5c4)c3Cl)c2Cl)ccc1CNC1CCN(C(C)=O)CC1` [Example 654, 1-(4-(((6-(2-Chloro-3-(3-chloro-2-(2-(((2-hydroxyethyl)amino)methyl)-8-methoxy-[1,2,4]triazolo[1,5-a]pyridin-6-yl)pyridin-4-yl)phenyl)-2-methoxypyridin-3-yl)methyl)amino)piperidin-1-yl)ethan-1-one], for which the midpoint of the response, the EC50, lay at 82.8 nM.

Regarding `COc1nc(-c2cccc(-c3ccnc(-c4cc(OC)c5nc(CN6CC7(CNC(=O)C7)C6)nn5c4)c3Cl)c2Cl)ccc1CNC1CCN(C(C)=O)CC1` [Example 659, 2-((6-(4-(3-(5-(((1-Acetylpiperidin-4-yl)amino)methyl)-6-methoxypyridin-2-yl)-2-chlorophenyl)-3-chloropyridin-2-yl)-8-methoxy-[1,2,4]triazolo[1,5-a]pyridin-2-yl)methyl)-2,6-diazaspiro[3.4]octan-7-one], the EC50 came out at 82.2 nM.

In turn, `COc1nc(-c2cccc(-c3ccnc(-c4cc5c(OC)nc(CNCCO)nn5c4)c3Cl)c2Cl)ccc1CNC1CCN(C(C)=O)CC1` [Example 661, 1-(4-(((6-(2-Chloro-3-(3-chloro-2-(2-(((2-hydroxyethyl)amino)methyl)-4-methoxypyrrolo[2,1-f][1,2,4]triazin-6-yl)pyridin-4-yl)phenyl)-2-methoxypyridin-3-yl)methyl)amino)piperidin-1-yl)ethan-1-one] had an EC50 of 820 nM.

The compound `COc1nc(-c2cccc(-c3ccnc(-c4ccc(CN5CC6(C5)CN(C(C)=O)C6)c(OC(F)F)c4)c3Cl)c2Cl)ccc1CNC1CCOCC1` [Example 663, 1-(6-(4-(3-Chloro-4-(2-chloro-3-(6-methoxy-5-(((tetrahydro-2H-pyran-4-yl)amino)methyl)pyridin-2-yl)phenyl)pyridin-2-yl)-2-(difluoromethoxy)benzyl)-2,6-diazaspiro[3.3]heptan-2-yl)ethan-1-one] showed an EC50 of 39.9 nM.

For `COc1nc(-c2cccc(-c3ccnc(-c4ccc(CN5CC6(C5)CN(C(C)=O)C6)c(OC(F)F)c4)c3Cl)c2Cl)ccc1CNC1CCN(C(C)=O)CC1` [Example 664, 1-(4-(((6-(3-(2-(4-((6-Acetyl-2,6-diazaspiro[3.3]heptan-2-yl)methyl)-3-(difluoromethoxy)phenyl)-3-chloropyridin-4-yl)-2-chlorophenyl)-2-methoxypyridin-3-yl)methyl)amino)piperidin-1-yl)ethan-1-one], the response was half-maximal at 32.4 nM (EC50).

The compound `COc1nc(-c2ccnc(-c3cccc4c3CC[C@@H]4Nc3nc(OC)c(CNC[C@@H]4CCC(=O)N4)cc3C(F)(F)F)c2Cl)ccc1CNC1CCOCC1` [Example 666, (S)-5-((((6-(((S)-4-(3′-Chloro-6-methoxy-5-(((tetrahydro-2H-pyran-4-yl)amino)methyl)-[2,4′-bipyridin]-2′-yl)-2,3-dihydro-1H-inden-1-yl)amino)-2-methoxy-5-(trifluoromethyl)pyridin-3-yl)methyl)amino)methyl)pyrrolidin-2-one] yielded an EC50 of 114 nM.

Take `COc1cc(-c2nccc(-c3cccc(-c4ccc(CN5CC6(C5)CN(C(=O)CO)C6)c(OC)n4)c3Cl)c2Cl)ccc1CN1CC2(C1)CN(C(=O)CO)C2` [Example 667, 1-(6-((6-(2-Chloro-3-(3-chloro-2-(4-((6-(2-hydroxyacetyl)-2,6-diazaspiro[3.3]heptan-2-yl)methyl)-3-methoxyphenyl)pyridin-4-yl)phenyl)-2-methoxypyridin-3-yl)methyl)-2,6-diazaspiro[3.3]heptan-2-yl)-2-hydroxyethan-1-one]: a half-maximal effect (EC50) was put at 66.1 nM.

Turning to `COc1cc(-c2nccc(-c3nccc(-c4ccc(CNC5CCN(C(C)=O)CC5)c(OC)n4)c3Cl)c2Cl)ccc1CNC1CCN(C(C)=O)CC1` [Example 668, 1-(4-((4-(5-(((1-acetylpiperidin-4-yl)amino)methyl)-3′,3″-dichloro-6-methoxy-[2,4′:2′,4″-terpyridin]-2″-yl)-2-methoxybenzyl)amino)piperidin-1-yl)ethan-1-one], a half-maximal response (EC50) required 244 nM.

`COc1cc(-c2nccc(-c3cccc(-c4ccc(CN5CC6(CCN(CCO)C6)C5)c(OC)n4)c3Cl)c2Cl)ccc1CN1CC2(CCN(CCO)C2)C1` [Example 670, 2-(2-((6-(2-Chloro-3-(3-chloro-2-(4-((6-(2-hydroxyethyl)-2,6-diazaspiro [3.4]octan-2-yl)methyl)-3-methoxyphenyl)pyridin-4-yl)phenyl)-2-methoxypyridin-3-yl)methyl)-2,6-diazaspiro[3.4]octan-6-yl)ethan-1-ol] yielded an EC50 of 62.2 nM.
